The values that follow are results of earlier work, collected in US7198802B2, “Tablet obtained by direct compression comprising 4-amino-1-hydroxybutylidene-1,1-bisphosphonic acid as active ingredient” (Zentiva A.S., priority 2000, dated 2007).

The conditions of this data set: atmospheric relative humidity.

`OC[C@@H](O)[C@@H](O)[C@H](O)[C@H](O)CO` [mannitol, Mannitol]: the “relative humidity at which moisture / water content rises” value is “about 98%”.
Turning to `OC[C@H]1O[C@@H](O[C@H]2[C@H](O)[C@@H](O)C(O)O[C@@H]2CO)[C@H](O)[C@@H](O)[C@H]1O` (some centres unmarked) [Lactose], the “relative humidity at which moisture / water content rises” value is reported as “above 90%”.
